Experiments:
[1] = system: MCD diet-induced NASH; assay: MCD diet-induced nonalcoholic steatohepatitis (NASH) mouse model; type: in vivo
Excerpt: Male wild-type (WT) mice C571BI/6 were fed either methionine/choline-sufficient (MCS) chow diet (Trophic Animal Feed High-tech Co., Ltd, China) or MCD diet (Trophic Animal Feed High-tech Co., Ltd, China) for 7 weeks. Animals were randomly divided into eight groups: 1) control, fed a standard control MCS diet and given vehicle (35% polyethylene glycol (PEG) 400:15% Cremophor EL:5% ethanol:45% saline); 2) rats fed a MCD diet and given vehicle; 3) rats fed the MCD diet and orally treated with silybin (300 milligrams per kilogram (mg/kg)); 4) rats fed the MCD diet and orally treated with silybin (150 mg/kg); 5) rats fed the MCD diet and orally treated with tangeretin (150 mg/kg); 6) rats fed the MCD diet and orally treated with 75 mg/kg silybin and 75 mg/kg tangeretin (SB & TG—L); 7) rats fed the MCD diet and orally treated 150 mg/kg silybin and 150 mg/kg tangeretin (SB & TG—M); 8) rats fed the MCD diet and orally treated with 300 mg/kg silybin and […]. Body weight was intermittently monitored during the diet-induction period and every two or three days during the intervention period.
At the end of 8 weeks, mice were sacrificed under ether anesthesia. The following procedures are same as the description under “2.10 Effects of silybin on acute liver damage induced by CCl4 in rats”. The cytokine levels including tumor necrosis factor alpha (TNF-α) (eBioscience Inc, San Diego, Calif., USA), interleukin-6 (IL-6) assay kit (Raybiotech, Norcross, Ga., USA) in serum of NASH model were further measured using commercially available enzyme-linked immunosorbent assay (ELISA) kits.

[2] = in vitro; type: in vitro ADME, rat; conditions: male, Sprague Dawley, rat
Protocol: Sandwich-cultured rat hepatocytes (SCHs) were established according to previously described methods with minor modifications. Primary rat hepatocytes were isolated from male Sprague Dawley® (SD) rats (220-270 g) using a collagenase perfusion as described previously and plated at a density of 7.4×10^5 cells/2 ml/well onto six-well BioCoat plates. Approximately 24 hours later, hepatocytes were overlaid with 2 ml of 0.25 mg/ml BD Matrigel basement membrane matrix in Dulbecco's modified Eagle medium (DMEM) containing 1% volume by volume percentage (v/v) insulin/transferrin/selenium culture supplement, […] dexamethasone, 2 mM L-glutamine, 1% (v/v) minimum essential medium nonessential amino acids, 1% penicillin-streptomycin. Hepatocytes were cultured for 4 days to allow extensive formation of canalicular networks between cells before experimentation and the medium was changed daily.
Sandwich-cultured hepatocytes (SCHs) were pre-incubated in 2 milliliters (ml) of warm Hank's Balanced Salt Solution (HBSS) with or without Ca^2+ at 37° C. for 15 minutes; the tight junctions of the bile canaliculi open temporally after exposure to HBSS without Ca^2+. Subsequently, cells were incubated at 37° C. for 20 minutes with 1.5 ml of standard HBSS containing silybin (10 μM), or MK 571 (50 μM) as a positive control, or baicalein (25, 15.8, 5, 1.58, 0.5, 0.16 μM), or tangeretin (25, 15.8, 5, 1.58, 0.5 μM). After 20 min, cells were washed three times with ice-cold standard HBSS. The cell samples were lysed by sonication in 1 ml of water for 5 seconds with the ultrasonic cell disruption system (SONICS & […], INC., Newtown, Conn., USA). Conjugated silybin and unconjugated (free) silybin were quantified by high-performance liquid chromatography-tandem mass spectrometry (HPLC-MS/MS). Transport function was normalized to the protein content of the hepatocytes which was evaluated by bicinchoninic acid (BCA) protein assay (Pierce Chemical, Rockford, Ill.). The biliary excretion index (BEI; %) and in vitro biliary clearance (Clbiliary; ml/min/kg) were calculated by using B-CLEAR technology (Qualyst, Inc., Research Triangle Park, N.C.) based on the following equations: […]

With `COc1cc(C2Oc3cc([C@H]4Oc5cc(O)cc(O)c5C(=O)[C@@H]4O)ccc3OC2CO)ccc1O` (stereo partly drawn) [silybin] the “MCD diet-induced TC and TG increase” value ([1]; mice on MCD diet) was “clearly inhibited”, the body weight ([1]; mice on MCD diet) was “slightly increased” and the “lipid accumulation and inflammatory infiltration in liver (H&E)” value ([1]; mice on MCD diet) was “decreased”. For the same compound, the liver/body weight ratio ([1]; mice on MCD diet) was “moderate decrease”, the “MCD diet-induced elevation of ALT, AST, MDA, SOD, GSH and GSH/GSSG ratio” value ([1]; silybin 300 mg/kg, silybin-tangeretin treatment) was “suppressed” and the liver/body ratio ([1]; silybin by co-treatment with tangeretin, FIG. 35A) was “significantly decreased”. For the same compound, the “body weight and liver weight” value ([1]; silybin by co-treatment with tangeretin, FIG. 35B, 35C) was “did not significantly affect” and the “MCD diet-induced cytokines elevation (IL-1β, TNF-α, IL-6)” value ([1]; silybin treatment in the absence or presence of tangeretin) was “suppressed”.

`COc1ccc(-c2cc(=O)c3c(OC)c(OC)c(OC)c(OC)c3o2)cc1` [tangeretin] showed an inhibition at 20 min [2] of about 90%.

— patent US10265298B2, “Method of increasing the bioavailability of silybin” (Macau University of Science and Technology, priority 2017, dated 2019)
